Source: ChEMBL document CHEMBL4196213, “Design and Synthesis of Novel Amino-triazine Analogues as Selective Bruton's Tyrosine Kinase Inhibitors for Treatment of Rheumatoid Arthritis” (J Med Chem, 2018)
Converted amounts (≈) assume the structure as drawn. Values belong to the molecule of their own block, whether it stands above or below them.

Key:
[1] = Apparent permeability in human Caco2 cells; assay type: ADME, cell-based; settings: Caco-2
[2] = Kinetic solubility of the compound incubated for 1 hr by LC-UV or LC-MS/MS analysis; assay type: physicochemical; settings: read-out: Kinetic_solubility
[3] = Tmax in mouse at 10 mg/kg, po; assay type: ADME, organism-based; settings: in vivo
[4] = Cmax in mouse at 2 mg/kg, iv; assay type: ADME, organism-based; set-up: dose 2 mg/kg, route intravenous; settings: in vivo
[5] = AUC (0 to t) in mouse at 2 mg/kg, iv; assay type: ADME, organism-based; settings: in vivo
[6] = AUC (0 to t) in mouse at 10 mg/kg, po; assay type: ADME, organism-based; settings: in vivo
[7] = AUC (0 to infinity) in mouse at 2 mg/kg, iv; assay type: ADME, organism-based; set-up: dose 2 mg/kg, time infinity, route intravenous; settings: in vivo
[8] = AUC (0 to infinity) in mouse at 10 mg/kg, po; assay type: ADME, organism-based; set-up: dose 10 mg/kg, time infinity, route oral; settings: in vivo
[9] = Volume of distribution in mouse at 2 mg/kg, iv; assay type: ADME, organism-based; settings: in vivo
[10] = MRT (0 to infinity) in mouse at 2 mg/kg, iv; assay type: ADME, organism-based; settings: in vivo
[11] = MRT (0 to infinity) in mouse at 10 mg/kg, po; assay type: ADME, organism-based; settings: in vivo
[12] = Oral bioavailability in mouse at 10 mg/kg; assay type: ADME, organism-based; settings: in vivo
[13] = Tmax in rat at 10 mg/kg, po; assay type: ADME, organism-based; settings: in vivo
[14] = Cmax in rat at 1 mg/kg, iv; assay type: ADME, organism-based; set-up: dose 1 mg/kg, route intravenous; settings: in vivo
[15] = Cmax in rat at 10 mg/kg, po; assay type: ADME, organism-based; set-up: dose 10 mg/kg, route oral; settings: in vivo
[16] = AUC (0 to t) in rat at 1 mg/kg, iv; assay type: ADME, organism-based; settings: in vivo
[17] = AUC (0 to t) in rat at 10 mg/kg, po; assay type: ADME, organism-based; settings: in vivo
[18] = AUC (0 to infinity) in rat at 10 mg/kg, po; assay type: ADME, organism-based; set-up: dose 10 mg/kg, route oral, time infinity; settings: in vivo
[19] = Volume of distribution in rat at 1 mg/kg, iv; assay type: ADME, organism-based; settings: in vivo
[20] = MRT (0 to infinity) in rat at 1 mg/kg, iv; assay type: ADME, organism-based; settings: in vivo
[21] = MRT (0 to infinity) in rat at 10 mg/kg, po; assay type: ADME, organism-based; settings: in vivo
[22] = Oral bioavailability in rat at 10 mg/kg; assay type: ADME, organism-based; settings: in vivo
[23] = Tmax in dog at 2 mg/kg, po; assay type: ADME, organism-based, Canis lupus familiaris; settings: in vivo
[24] = Cmax in dog at 1 mg/kg, iv; assay type: ADME, organism-based, Canis lupus familiaris; set-up: dose 1 mg/kg, route intravenous; settings: in vivo
[25] = Cmax in dog at 2 mg/kg, po; assay type: ADME, organism-based, Canis lupus familiaris; set-up: dose 2 mg/kg, route oral; settings: in vivo
[26] = AUC (0 to t) in dog at 1 mg/kg, iv; assay type: ADME, organism-based, Canis lupus familiaris; settings: in vivo
[27] = AUC (0 to t) in dog at 2 mg/kg, po; assay type: ADME, organism-based, Canis lupus familiaris; settings: in vivo
[28] = AUC (0 to infinity) in dog at 1 mg/kg, iv; assay type: ADME, organism-based, Canis lupus familiaris; set-up: dose 1 mg/kg, time infinity, route intravenous; settings: in vivo
[29] = AUC (0 to infinity) in dog at 2 mg/kg, po; assay type: ADME, organism-based, Canis lupus familiaris; set-up: dose 2 mg/kg, time infinity, route oral; settings: in vivo
[30] = Volume of distribution in dog at 1 mg/kg, iv; assay type: ADME, organism-based, Canis lupus familiaris; settings: in vivo
[31] = MRT (0 to infinity) in dog at 1 mg/kg, iv; assay type: ADME, organism-based, Canis lupus familiaris; settings: in vivo
[32] = Oral bioavailability in dog at 2 mg/kg, iv; assay type: ADME, organism-based, Canis lupus familiaris; settings: in vivo

SMILES: CC(C)(C)c1ccc(C(=O)Nc2cccc(-c3nc(N)nc(Nc4ccc(C(=O)N5CCOCC5)cc4)n3)c2CO)cc1
Papp [1]: 74 nm/s

SMILES: CC(C)n1cc(Nc2nc(N)nc(-c3cccc(-n4ccc5cc(C6CC6)cc(F)c5c4=O)c3CO)n2)cc1C#N
solubility kinetic at 1 h [2]: 4.8 µM (≈ 2.64 µg/mL)

SMILES: N#Cc1cc(Nc2nc(N)nc(-c3cccc(-n4ccc5cc(C6CC6)cc(F)c5c4=O)c3CO)n2)cn1C1CC1
solubility kinetic at 1 h [2]: 4 µM (≈ 2.19 µg/mL)

SMILES: Cn1cc(Nc2nc(N)nc(-c3cccc(-n4ccc5cc(C6CC6)cc(F)c5c4=O)c3CO)n2)cn1 [SOFNOBRUTINIB]
solubility kinetic at 1 h [2]: 20 µM (≈ 9.97 µg/mL)
Tmax [3]: 0.5 h
Cmax [4]: 2.89 µg/mL
AUC(0-t) [5]: 3.11 µg·h/mL
AUC(0-t) [6]: 10.2 µg·h/mL
AUC(0-inf) [7]: 3.11 µg·h/mL
AUC(0-inf) [8]: 10.2 µg·h/mL
Vd [9]: 3.03 L/kg
MRT inf [10]: 1.3 h
MRT inf [11]: 1.56 h
bioavailability [12]: 65.8%
Tmax [13]: 2 h
Cmax [14]: 1.38 µg/mL
Cmax [15]: 1.48 µg/mL
AUC(0-t) [16]: 1.92 µg·h/mL
AUC(0-t) [17]: 8.7 µg·h/mL
AUC(0-inf) [18]: 8.71 µg·h/mL
Vd [19]: 1.1 L/kg
MRT inf [20]: 1.79 h
MRT inf [21]: 4.88 h
bioavailability [22]: 44.4%

SMILES: CCn1cc(Nc2nc(N)nc(-c3cccc(-n4ccc5cc(C6CC6)cc(F)c5c4=O)c3CO)n2)cc1C#N
solubility kinetic at 1 h [2]: 0.71 µM (≈ 0.381 µg/mL)

SMILES: Nc1nc(Nc2cnn(C3CC3)c2)nc(-c2cccc(-n3ccc4cc(C5CC5)cc(F)c4c3=O)c2CO)n1
solubility kinetic at 1 h [2]: 4.7 µM (≈ 2.47 µg/mL)

SMILES: COCCOCCn1cc(Nc2nc(N)nc(-c3cccc(-n4ccc5cc(C6CC6)cc(F)c5c4=O)c3CO)n2)cc1C#N
solubility kinetic at 1 h [2]: 9.5 µM (≈ 5.8 µg/mL)

Results, then the molecule that gave them:

Papp [1]: 163 nm/s
SMILES: CC(C)(C)c1ccc(C(=O)Nc2cccc(-c3nc(N)nc(Nc4ccc(N5CCOCC5)cc4)n3)c2CO)cc1

solubility kinetic at 1 h [2]: 12 µM (≈ 5.81 µg/mL)
SMILES: Nc1nc(Nc2cn[nH]c2)nc(-c2cccc(-n3ccc4cc(C5CC5)cc(F)c4c3=O)c2CO)n1

Tmax [23]: 2 h
Cmax [24]: 4.96 µg/mL
Cmax [25]: 2.09 µg/mL
AUC(0-t) [26]: 11.3 µg·h/mL
AUC(0-t) [27]: 9.85 µg·h/mL
AUC(0-inf) [28]: 11.5 µg·h/mL
AUC(0-inf) [29]: 10 µg·h/mL
Vd [30]: 0.29 L/kg
MRT inf [31]: 3.31 h
bioavailability [32]: 43.7%
SMILES: Cn1cc(Nc2nc(N)nc(-c3cccc(-n4ccc5cc(C6CC6)cc(F)c5c4=O)c3CO)n2)cn1.O=S(=O)(O)O

solubility kinetic at 1 h [2]: 0.67 µM (≈ 0.35 µg/mL)
SMILES: Cn1cc(Nc2nc(N)nc(-c3cccc(-n4ccc5cc(C6CC6)cc(F)c5c4=O)c3CO)n2)cc1C#N

solubility kinetic at 1 h [2]: 2 µM (≈ 1.11 µg/mL)
SMILES: CC(C1CC1)n1cc(Nc2nc(N)nc(-c3cccc(-n4ccc5cc(C6CC6)cc(F)c5c4=O)c3CO)n2)cn1 (configuration not stated)

solubility kinetic at 1 h [2]: 1.2 µM (≈ 0.696 µg/mL)
SMILES: Nc1nc(Nc2ccc(N3CCOCC3)cc2)nc(-c2cccc(-n3ccc4cc(C5CC5)cc(F)c4c3=O)c2CO)n1
